Entries after “also recorded” stand apart in the source; their conditions may differ. Counter-ions that a name gives are not always drawn. Like-named read-outs stand apart in the source and are kept apart here.
Legend:
[1] = Toxicity studies, MTD determination; settings: in vivo
Procedure: In DMSO/PBS formulation, with MTD single dose: IV: ˜1 mg/kg; PO (oral): not determined due to poor absorption; and IP: ˜5 mg/kg. With MTD daily dosing: IP: ˜1 mg/kg. In Beta cyclodextrin formulation: MTD single dose: IV: not determined; PO (oral); ˜200 mg/kg; IP: >10 mg/kg. In MTD daily dosing: IP: at least 5 mg/kg; PO: at least 100 mg/kg.

[2] = Further PK studies, single dose, DMSO/PBS or BCD formulation; settings: blood at 0.5, 2 and 24-hrs; for Drug level in blood after administration, BCD formulation: 25 mg/kg single dose; for Drug level in blood after administration, DMSO/PBS formulation: 1 mg/kg single dose
Text: Treatment: 1-2 mice with single dose and blood at 0.5, 2 and 24-hrs.

[3] = Solubility in solvents and formulations
[4] = tested on: enzalutamide (enz)-resistant LNCaP cells; assay: Enzalutamide-resistant LNCaP cell growth in culture; type: cell-based, human
22Rv1 cells = assay: 22Rv1 cell growth in culture; type: cell-based, human; settings: androgen-independent, AR splice variant expressing 22Rv1 cells; tosylate
Procedure: (§1) For growth curves, cells were transferred to charcoal-stripped media three days before they were split and plated at a density of approximately 20,000 cells/well in 48 well plates, in quadruplicate. The assay was repeated three times. The following day, medium with the indicated drugs was added to the cells. Proliferation was determined by measuring the DNA content of the cells in each well. Each day, the cells were fixed in 100% cold methanol, followed by staining for 5 min at RT with 0.2 ng/mL 4′,6-diamidino-2-phenylindole (DAPI) in PBS. The cells were washed with PBS, then read on a fluorescence plate reader (FPR) using 365/439 excitation/emission wavelengths. A student's T test was used to determine significant differences among populations.

other nuclear receptors = assay: Specificity for AR versus other nuclear receptors; type: cell-based; settings: P24 0.1, 0.3, 1 μM; P7 0.3, 1, 3 μM
LNCaP cells = assay: LNCaP prostate cancer cell growth (DAPI staining); type: cell-based, human; settings: for Inhibition of LNCaP cell growth in culture: AR-dependent LNCaP cells; for inhibition at 0.3 µM: Homo sapiens, LNCaP, read-out: LNCaP growth inhibition at 300 nM
Procedure: as §1

[5] = P24 microsomal analysis, mouse microsomes; type: in vitro ADME
Procedure: (§2) FIG. 16. P24 microsomal analysis.
(§3) As depicted in FIG. 16, the concentration of compound. P24 solution tested with incubation with microsomes.

AR target genes = assay: Inhibition of AR activity in vivo (qRT-PCR of prostate tissue); design: species or system Mice; settings: 5 mg/kg via osmotic pump for 4 weeks
Procedure: Total RNA was isolated from homogenized prostate or tumor tissue using an RNAeasy kit (Qiagen). RNA was reverse-transcribed (MMLV-RT; Invitrogen), and the expression of androgen-regulated genes was assessed by qPCR using a StepOne Real Time PCR System (Applied Biosystems), using SYBR green (Invitrogen) as the detecting dye and Rox (Invitrogen) as the reference dye. Differences between treated (x) and no DHT control (y) samples were normalized to RPL19 transcript levels (i.e., androgen-unresponsive) and determined with the following calculation: (2[Ctxgene1−Ctygene1])/(2[CtxRPL19−CtyRPL19]).

[6] = P24 microsomal analysis, human microsomes; type: in vitro ADME
Procedure: as §2, §3

[7] = ip, Beta cyclodextrin formulation, IP, daily dosing, read-out: MTD daily dosing IP
[8] = ip, Beta cyclodextrin formulation, IP, single dose, read-out: MTD single dose IP
[9] = ip, DMSO/PBS formulation, IP, daily dosing, read-out: MTD daily dosing IP
[10] = ip, DMSO/PBS formulation, IP, single dose, read-out: MTD single dose IP
[11] = iv, DMSO/PBS formulation, IV, single dose, read-out: MTD single dose IV
[12] = po, Beta cyclodextrin formulation, PO, daily dosing, read-out: MTD daily dosing PO
[13] = po, Beta cyclodextrin formulation, PO, single dose, read-out: MTD single dose PO (oral)
[14] = 100 ng/ml P24, absence of NADPH
[15] = 100 ng/ml P24, presence of NADPH

Which MTD [1, 7] does the source give for `Cc1cc(/C=C/c2ccc3cc(N(C)C)ccc3[n+]2C)c(C)[nH]1.Cc1ccc(S(=O)(=O)[O-])cc1` [P7, (E)-6-Dimethylamino-2-(2-(2,5-dimethyl-1H-pyrrol-3-yl)ethenyl)-1-methylquinolinium tosylate] here?
The MTD was no less than 5 mg/kg.

What about the MTD [1, 8] of the same molecule?
Its MTD is greater than 10 mg/kg.

What about the MTD [1, 9] of the same molecule?
The MTD was roughly 1 mg/kg.

What about the MTD [1, 10] of the same molecule?
The MTD was roughly 5 mg/kg.

What about the MTD [1, 11] of the same molecule?
Its MTD is roughly 1 mg/kg.

What about the MTD [1, 12] of the same molecule?
The MTD was no less than 100 mg/kg.

And the MTD [1, 13]?
Its MTD is roughly 200 mg/kg.

And the “Drug level in blood after administration, BCD formulation” value [2]?
The value was “more continuous peak”.

And the “Drug level in blood after administration, DMSO/PBS formulation” value [2]?
Its value is “almost no drug”.

And the solubility ([3]; DMSO, organic solvent or mixture)?
Its solubility is roughly 10000 µg/mL.

And the solubility ([3]; acetonitrile, organic solvent or mixture)?
Its solubility is less than 5000 µg/mL.

What about the solubility ([3]; beta cyclodextrin, aqueous with cosolvent or surfactant or cyclodextrin) of the same molecule?
Its solubility is roughly 5000 µg/mL.

What about the solubility ([3]; buffer B (aqueous), aqueous buffer) of the same molecule?
Its solubility is less than 5000 µg/mL.

And the solubility ([3]; ethanol, organic solvent or mixture)?
The solubility was roughly 5000 µg/mL.

What about the solubility ([3]; gamma cyclodextrin, aqueous with cosolvent or surfactant or cyclodextrin) of the same molecule?
Its solubility is roughly 5000 µg/mL.

What about the “Inhibition of growth of enzalutamide-resistant LNCaP cells” value [4] of the same molecule?
The value was “inhibit the growth”.

And the “Inhibition of 22Rv1 cell growth in culture” value (22Rv1 cells)?
The value was “inhibit the growth; also recorded: inhibited”.

And the “Activity against other nuclear receptors” value (other nuclear receptors)?
The value was “little activity”.

And the “Inhibition of LNCaP cell growth in culture” value (LNCaP cells; tosylate)?
The value was “inhibit the growth; also recorded: inhibited”.

And the inhibition at 0.3 µM (LNCaP cells)?
The inhibition at 0.3 µM was 100%.

What does the source list for `Cc1cccnc1-n1c(C)cc(/C=C/c2ccc3cc(N(C)C)ccc3[n+]2C)c1C` [P24, (E)-6-Dimethylamino-2-(2-(2,5-dimethyl-1-(3-methylpyridin-2-yl)-1H-pyrrol-3-yl)ethenyl)-1-methylquinolinium tosylate]?
MTD [1, 7]: ≥ 5 mg/kg; MTD [1, 8]: > 10 mg/kg; MTD [1, 9]: ~1 mg/kg; MTD [1, 10]: ~5 mg/kg; MTD [1, 11]: ~1 mg/kg; MTD [1, 12]: ≥ 100 mg/kg; MTD [1, 13]: ~200 mg/kg; Drug level in blood after administration, BCD formulation [2]: significant spike; Drug level in blood after administration, DMSO/PBS formulation [2]: almost no drug; Breakdown in microsomes without NADPH (chemical stability) [5, 14]: lack of breakdown; Metabolism in microsomes, NADPH dependence [5, 15]: NADPH dependent; Inhibition of growth of enzalutamide-resistant LNCaP cells [4]: inhibit the growth; Inhibition of 22Rv1 cell growth in culture (22Rv1 cells): inhibit the growth; also recorded: inhibited; Inhibition of AR target genes in prostate tissue (qRT-PCR) (AR target genes): inhibition of AR target genes; Activity against other nuclear receptors (other nuclear receptors): little activity; Breakdown in microsomes without NADPH (chemical stability) [6, 14]: lack of breakdown; Metabolism in microsomes, NADPH dependence [6, 15]: NADPH dependent; Inhibition of LNCaP cell growth in culture (LNCaP cells; tosylate): inhibit the growth; also recorded: inhibited; inhibition at 0.3 µM (LNCaP cells): 100%

Which “Inhibition of LNCaP cell growth in culture” value (LNCaP cells) does the source give for `CNC(=O)c1ccc(N2C(=S)N(c3ccc(C#N)c(C(F)(F)F)c3)C(=O)C2(C)C)cc1F` [enzalutamide, reference compound] here?
Its value is “inhibited”.
